Experimental data taken from US20040028734A1, “Use of anti-muscarinic agents and calcium channel blockers in combination” (priority 2000, published 2004).
Read-outs that look alike come from different tables or passages of the source.

What was measured:
T lymphocytes = details: cited from earlier work
[1] = clinical level, compared with ipratropium; cited from earlier work
[2] = tested on: Guinea pig tracheal strip preparations; experiment: tissue or blood; details: for % Relaxation: % maximal of carbachol-induced tone, DRC to verapamil
Protocol: Again, guinea pig tracheal strip preparations were pre-contracted with 5×10^−6 M carbachol for 10 minutes before incubation with the pre-treatment drug. The relaxation (% maximal of carbachol-induced tone) induced by the pre-treatment is shown in FIG. 2, for the following groups.

[3] = tested on: Guinea pig tracheal strip preparations; experiment: tissue or blood; details: Cavia porcellus, 5 min
Protocol: Guinea pig tracheal strip preparations were pre-contracted with 5×10^−6 M carbachol for 10 minutes, to induce tone, before incubation with drug. […] Relaxation is expressed as % maximal relaxation induced by 5×10^−4 M papaverine after completion of concentration-response curves. […]

[4] = Frey's syndrome, single dermal application; cited from earlier work

For CN1[C@@H]2CC[C@H]1C[C@@H](OC(=O)C(CO)c1ccccc1)C2 (some centres unmarked) [atropine, Atropine], the “effect on acetylcholine-mediated enhanced T lymphocyte proliferation” value (T lymphocytes) is listed as “abolishes this effect completely”.

In the case of C[N+]1(C)CCC(OC(=O)C(O)(c2ccccc2)C2CCCC2)C1 (centres unmarked) [glycopyrrolate], the “duration of action in muscarinic antagonism” value [1] is listed as “longer duration of action in muscarinic antagonism than ipratropium”, the “% Relaxation” value ([2]; Group B, pre-treatment 4 × 10^−9 M) is listed as 6.5 ± 0.8% and the “% Relaxation” value ([2]; Group C, pre-treatment 4 × 10^−10 M) is listed as −0.7 ± 1.4%. For the same compound, the EC50 [3] was 9.23 nM, the EC50 ([3]; read-out: -Log EC50 (converted)) was 9.12 nM and the duration of action [4] was “two day”.

Work on COc1ccc(CCN(C)CCCC(C#N)(c2ccc(OC)c(OC)c2)C(C)C)cc1OC (centres unmarked) [verapamil] yielded an EC50 ([2]; Cavia porcellus) of 5000 nM.
